The values that follow come from patent US20250255856A1, “THERAPEUTIC COMPOSITIONS WITH IMINO SUGARS FOR THE TREATMENT OF DISEASES WITH ACCUMULATION OF HEPARAN SULFATE” (priority 2022, published 2025).

Counter-ions that a name gives are not always drawn.

Assay [1] has as its system human adult dermal fibroblasts HDFa. The assay is described as follows: HS and Lamp1 immunofluorescence in control fibroblasts HDFa. It counts as cell-based. Conditions: 20 μM, 48 hours. How it is done: (§1) To verify whether the selected iminosugars could exert the same effects also on the fibroblasts of patients affected by Sanfilippo disease, human adult dermal fibroblasts HDFa (purchased from Sigma-Aldrich) were used as control, and fibroblasts of patients affected by Sanfilippo A and B (MPS IIIA and IIIB) were used as disease model.
(§2) Cells were cultured in the presence of the selected L-iminosugars at a dosage of 20 μM and after 48 hours were treated for HS and Lamp1 immunofluorescence. Treatment with L-iminosugars had no effect on control HDFa (Table 3).
(§3) Cells were grown in the presence of the iminosugars D-DNJ, D-NBDNJ, D-AMPDNM and D-MONDNJ at the dosage of 20 μM and after 48 hours were treated for HS and Lamp1 immunofluorescence. Treatment with D-iminosugars had no effect on HDFa and fibroblasts of patients affected by Sanfilippo A and B (MPS IIIA and MPS IIIB) both on HS and lysosome accumulation (Table 4).

For another assay, the system named is patients with MPS III. Conditions: cited from earlier work.
Assay [2] relates to NAGLU-silenced clone (cl5) of human neuroblastoma cell line SK-NBE. The assay is described as follows: Immunofluorescence against beta-amyloid peptide 1-42 in NAGLU-silenced SK-NBE clone. In kind it is cell-based. To be noted: 20 μM, 48 hours. How it is done:
The clone (c15) stably silenced for NAGLU, the causative gene of MPS IIIB, is able to mimic the features of neurodegenerative diseases as it accumulates beta-amyloid fibers in the cytoplasm. In fact, Sanfilippo Syndrome is also defined as “childhood Alzheimer”.
The diseased clone (c15) was grown in the presence of L-DNJ, L-NBDNJ, L-AMPDNM and L-MONDNJ and the corresponding enantiomers D-DNJ, D-NBDNJ, D-AMPDNM and D-MONDNJ at a dosage of 20 μM and after 48 hours were processed by immunofluorescence against the beta-amyloid peptide 1-42. […] On contrary, treatment with the corresponding D-enantiomers has no effect on the reduction of the accumulation of amyloid fibers compared to the untreated clone (mock) (Table 7).

Assay [3] relates to HeLa tumor epithelial cells. The assay is described as follows: HeLa cell proliferation assay. In kind it is cell-based. Conditions: after 48 hours. How it is done: Furthermore, treatment with the L-deoxyminosugars L-DNJ, L-NBDNJ, L-AMPDNM and L-MONDNJ caused a decrease of the number of HeLa cells after 48 hours as shown by the cell proliferation assay reported in Table 6.

The test system of assay [4] is fibroblasts of patients affected by Sanfilippo A (MPS IIIA). The assay is described as follows: HS and Lamp1 immunofluorescence in Sanfilippo A patient fibroblasts. It counts as cell-based, human. Conditions: 20 μM, 48 hours.
Description: as §1
(§4) The human cell lines, fibroblasts, from patients with MPS (Sanfilippo disease) used in the examples were obtained from the G. Gaslini Institute of Genoa, “Cell Line and DNA Biobank from Patients Affected by Genetic Diseases”-Telethon Genetic Biobank Network—Telethon research service. These cells are classified with identification codes and by type of disease without allowing patient identification. Cells were collected from the patients, at the Gaslini Institute, with informed consent to the collection extended to conservation and its possible use, for diagnosis and/or research purposes according to current legislation as required by the guidelines followed by the Telethon biobanks. The Network operates abiding by the Italian Privacy and Data Protection Laws in force, including: Italian Data Protection Authority, Personal Data Protection Code, Legislative Decree no. 196, 30 Jun. 2003, published in Official Gazette No. 174 of the Italian Republic, 29 Jul. 2003; Italian Data Protection Authority, General Authorization for the processing of genetic data, 24 Jun. 2011, published in Official Gazette No. 159 of Italian Republic, 11 Jul. 2011.
as §2, §3

For assay [5], the system named is fibroblasts of patients affected by Sanfilippo B (MPS IIIB). The assay is described as follows: HS and Lamp1 immunofluorescence in Sanfilippo B patient fibroblasts. In kind it is cell-based, human. To be noted: 20 μM, 48 hours.
Description: as §1, §4, §2, §3

The test system of assay [6] is control clone (WT) of human neuroblastoma cell line SK-NBE. The assay is described as follows: Heparan sulfate (HS) immunofluorescence in control (WT) SK-NBE clone. It counts as cell-based. Conditions: 20 μM, 48 hours.
Assay [7] deals with HeLa tumor epithelial cells. The assay is described as follows: HS immunostaining in HeLa cells. In kind it is cell-based. To be noted: 48 hours. How it is done:
To test whether treatment with the selected L-deoxyminosugars (L-DNJ, L-NBDNJ, L-AMPDNM and L-MONDNJ) could interfere with HS synthesis we selected a cell line not mutated for NAGLU and highly decorated by heparan sulfate on the cell membrane. For this purpose, HeLa tumor epithelial cells (purchased from ATCC) were cultured for 48 hours in the presence of the selected L-iminosugars and the amount of HS was evaluated by immunostaining.

The subject of assay [8] is NAGLU-silenced clone (cl5) of human neuroblastoma cell line SK-NBE. The assay is described as follows: Lamp1 immunofluorescence (lysosomal accumulation) in NAGLU-silenced SK-NBE clone, Sanfilippo B model. It counts as cell-based. Conditions: 48 hours. From the text:
(§5) To study the effects of the compounds on the lysosomal dysfunctions in a neuronal model of Sanfilippo B disease (MPS IIIB), we recently generated stable clones of the human neuroblastoma cell line SK-NBE silenced for the NAGLU gene causative of MPS IIIB [De Pasquale V, et al. (2021). Biochim Biophys Acta Mol Cell Res. 1868, 119113.]. Mimicking the features of Sanfilippo B disease, silencing of NAGLU causes accumulation of heparan sulfate and accumulation of lysosomes in the cytoplasm of stable SK-NBE clones compared to the control (WT) clone.
(§6) Therefore, NAGLU-silenced clone (c15) and control clone (WT) were selected to test the effect of L-deoxyminosugars (L-DNJ, L-NBDNJ, L-NNDNJ, L-HPDNJ, L-NPDNJ, L-AMPDNM and L-MONDNJ) in the hydrochloride form on the lysosomal phenotype of our cell model of Sanfilippo B (MPS IIIB).
(§7) Clone 5 was cultured in the presence of 20 μM of each L-deoxyminosugar under normal growth conditions and after 48 hours the lysosomal accumulation was evaluated with immunofluorescence technique by using a specific antibody against Lamp1 (lysosomal marker). […] Furthermore, upon treatment with the active L-deoxyminosugar the lysosomes are no longer concentrated in the perinuclear region of the cells, as occurs in several lysosomal diseases, but they are physiologically distributed throughout the cytoplasm.

Assay [9] has as its system control clone (WT) of human neuroblastoma cell line SK-NBE. The assay is described as follows: Lamp1 immunofluorescence in control (WT) SK-NBE clone. To be noted: 20 μM, 48 hours. In kind it is cell-based.
Description: as §5, §6, §7

Assay [10] deals with NAGLU-silenced clone (cl5) of human neuroblastoma cell line SK-NBE. The assay is described as follows: Heparan sulfate (HS) immunofluorescence in NAGLU-silenced SK-NBE clone, Sanfilippo B model. It counts as cell-based. To be noted: 48 hours.
Description: as §5
Clone 5 was grown in the presence of 20 μM of each L-iminosugar under normal growth conditions and after 48 hours the accumulation of heparan sulfate (HS) was evaluated by immunofluorescence staining for HS.

Take `CCCCN1C[C@H](O)[C@@H](O)[C@H](O)[C@H]1CO` [D-NBDNJ•HCl]: the “Cells positive for HS (%)” value in assay [1] turned out to be 4.8%; in [4] (MPS-IIIA fibroblasts), 99.7%; in assay [5] (MPS-IIIB fibroblasts), 95.2%. Further, the entries for the “Cells positive for Lamp1 (%)” value in [1], in [4] (MPS-IIIA fibroblasts) and in assay [5] (MPS-IIIB fibroblasts) were 5.0%, 94.7% and 93.8%, respectively. Moreover, the “Clinical efficacy in MPS III patients, in words” value in the assay with patients with MPS III was “no beneficial effects”. For the same molecule, the “Relative amyloid fluorescence intensity” value in [2] is 0.98. Besides, the Cell number in assay [3] is 4.2 · 10^5.
Consider `O=c1c(-c2ccc(O)cc2)coc2cc(O)cc(O)c12` [genistein], for which the “Clinical efficacy in MPS III patients, in words” value with patients with MPS III was “ineffective”.
`COCCCCCCCCCN1C[C@@H](O)[C@H](O)[C@@H](O)[C@@H]1CO` [L-MONDNJ•HCl, N-methoxynonyl L-DNJ]: the “Relative fluorescence intensity compared to HDFa, HS” value stood at 1.0 in assay [1], 1.8 in [4] (MPS-IIIA fibroblasts) and 1.7 in [5] (MPS-IIIB fibroblasts). In addition, the “Relative fluorescence intensity compared to HDFa, Lamp1” value in [1] is 1.0; in assay [4] (MPS-IIIA fibroblasts), 2.2; in [5] (MPS-IIIB fibroblasts), 1.3. Moreover, the “Cells positive for HS (%)” value is on record as 2.1% in [6] and 4.9% in assay [10] (cl5 clone, 20 μM). Also, the “Relative HS fluorescence intensity” value in assay [6] worked out at 0.97; in assay [7], 0.11; in assay [10] (cl5 clone, 20 μM) it was 1.15. For the same molecule, the “Relative amyloid fluorescence intensity” value in [2] worked out at 0.01. Moreover, in assay [3], the Cell number is reported as 3.1 · 10^5. Also, the “Effect on the number of HeLa cells, in words” value in assay [3] is on record as “decrease”. Besides, the “Effect on HS accumulation on the HeLa cell membrane, in words” value in [7] is “strong reduction”. Besides, the “Cells positive for Lamp1 (%)” value in [8] (cl5 clone, 20 μM) is given as 21%; in [9] it was 2.4%. Besides, the “Relative Lamp1 fluorescence intensity” value in assay [8] (cl5 clone, 20 μM) turned out to be 1.00; in assay [9] it was 1.05. Besides, the “Effect on lysosomal enlargement and accumulation (lysosomal phenotype), in words” value in assay [8] (clone 5, 20 μM) is reported as “dramatic reduction”. Besides, the “Effect on HS and lysosome (Lamp1) accumulation, in words” value in assay [4] (Sanfilippo A (MPS IIIA) patient fibroblasts) and in assay [5] (Sanfilippo B (MPS IIIB) patient fibroblasts) was “strong reduction” in each case. Moreover, the “Effect on HS staining / HS accumulation, in words” value in [10] (clone 5, 20 μM) is given as “dramatic reduction”.
